Laboratory results from US7785607B2 (priority 2004, dated 2010).
Like-named read-outs stand apart in the source and are kept apart here.

Test system: IFN-gamma-producing T lymphocytes (PBMC)
Format: cell-based, human
Details: for SFCs/2.5 × 10^5 cells: μg/mL: proteins 2 each, ESAT-6 pool 50, CFP-10 pool 8, both pools 58, PHA 1, PPD 10

**Q.** For phytohemagglutinin [PHA], which “Absolute value (spots in control wells subtracted)” value (“Absolute value” for short) is on record?
**A.** 237

**Q.** What about the “response scored positive or negative” value of the same substance?
**A.** positive

**Q.** What about the “SFCs/2.5 × 10^5 cells” value ([…], mean of duplicate wells) of the same substance?
**A.** 240 SFCs/2.5 × 10^5 cells

**Q.** What about the “Absolute value” value (sample 1b latent tuberculosis) of the same substance?
**A.** 236

**Q.** What about the “SFCs/2.5 × 10^5 cells” value (sample 1b latent tuberculosis, mean of duplicate wells) of the same substance?
**A.** 240 SFCs/2.5 × 10^5 cells

**Q.** And the “response scored positive or negative” value (sample 1e anergic subject)?
**A.** negative

**Q.** What about the “Absolute value” value (sample 1e anergy) of the same substance?
**A.** 6

**Q.** What about the “SFCs/2.5 × 10^5 cells” value (sample 1e anergy) of the same substance?
**A.** 11 SFCs/2.5 × 10^5 cells

**Q.** What about the “response scored positive or negative” value (sample 1d healthy control) of the same substance?
**A.** positive
